Data published in PMC7673538 (PLoS Biology, 2020).
Several values for one entry are separate records, joined by “and”; a condition that tells them apart may be missing. Equal values may be shown once. Read-outs that look alike come from different tables or passages of the source.

Columns and labels:
Assay in all cases: microbe, parasite or virus in culture
EV-A71 = assay type: cell-based, enterovirus A71; conditions: for EC50: Enterovirus A
CV-A24 = assay type: cell-based, coxsackievirus A24
EV-D68 = assay type: cell-based, enterovirus D68; conditions: for EC50: Enterovirus D
HRV-A2 = assay type: cell-based, human rhinovirus; conditions: Human rhinovirus sp., HRVA2, HeLa R19, read-out: EC50 HRV-A2
HRV-B14 = assay type: cell-based, human rhinovirus; conditions: Human rhinovirus sp.
CV-B3 [1] = assay type: cell-based, coxsackievirus B3; conditions: Enterovirus B
CV-B3 [2] = assay type: cell-based, coxsackievirus B3; conditions: Enterovirus B, CVB3, BGM

With `O=C(c1ccco1)N(Cc1ccc(C(F)(F)F)cc1)c1ccccc1` [Compound 19d, N-phenyl-N-(4-(trifluoromethyl)benzyl)furan-2-carboxamide] the “resistance of reverse-engineered EV-A71 2C M193L (in words)” value (EV-A71) was “conferred 19d resistance”, the “resistance of reverse-engineered EV-A71 2C M193L/R151H (in words)” value (EV-A71) was “further increased the resistance” and the “resistance of reverse-engineered EV-A71 2C M193L/R151H/T133S (in words)” value (EV-A71) was “slightly further increased resistance”. The “resistance of reverse-engineered EV-A71 2C R151H (in words)” value (EV-A71) was “did not confer resistance”, the “multicycle replication assay read-out, EV-A71(BrCr)” value (EV-A71; 0.2344 µM) was 5.8952 and 4.978 and 5.24 and the “multicycle replication assay read-out, EV-A71(BrCr)” value (EV-A71; 0.4688 µM) was 6.681 and 6.55 and 6.0262. For the same molecule, the “multicycle replication assay read-out, EV-A71(BrCr)” value (EV-A71; 1.875 µM) was 102.314 and 101.266 and 100.218, the “multicycle replication assay read-out, EV-A71(BrCr)” value (EV-A71; 3.75 µM) was 101.266 and 99.5633 and 96.5502 and the “multicycle replication assay read-out, EV-A71(BrCr)” value (EV-A71; 7.5 µM) was 100.48 and 99.0393 and 95.2402. The “multicycle replication assay read-out, EV-A71(BrCr)” value (EV-A71; 15 µM) was 94.1921 and 92.2271 and 88.5589, the “multicycle replication assay read-out, EV-A71(BrCr)” value (EV-A71; 30 µM) was 98.1223 and 94.4541 and 90.524 and the EC50 (EV-A71; EVA71, HeLa R19, read-out: EC50 Average) was 1.29 µM. The EC50 (EV-A71; EVA71, HeLa R19, read-out: EC50 EV-A71) was 0.27 ± 0.12 µM, the EC50 (EV-A71; EVA71, HeLa R19, read-out: EC50 EV-A71 strain BrCr) was 1.68 ± 0.62 µM and the EC50 (EV-A71; EVA71, HeLa R19, read-out: EC50 EV-A71 strain TW/2728/04) was 2.33 ± 1.23 µM. The EC50 (EV-A71; EVA71, HeLa R19, read-out: EC50 EV-A71 strain TW/2945/98) was 2.9 ± 1.03 µM, the EC50 (EV-A71; EVA71, HeLa R19, read-out: EC50 EV-A71 strain TW/70811/08) was 0.754 ± 0.01 µM and the EC50 (EV-A71; EVA71, HeLa R19, read-out: EC50 EV-A71 strain TW/72232/04) was 2.54 ± 1.72 µM. The EC50 (EV-A71; EVA71, HeLa R19, read-out: EC50 EV-A71 strain TW/96016/08) was 1.94 ± 0.82 µM, the EC50 (CV-A24; Enterovirus C, CVA24, HeLa R19, read-out: EC50 CV-A24) was 19.5 ± 0.55 µM and the EC50 (CV-A24; Enterovirus C, CVA24, HeLa R19, read-out: EC50 CV-A24 strain Joseph) was 18.7 ± 0.67 µM. It also gave an EC50 (CV-A24; Enterovirus C, CVA24, HeLa R19, read-out: EC50 Exp1) of 19 µM, an EC50 (CV-A24; Enterovirus C, CVA24, HeLa R19, read-out: EC50 Exp2) of 20.1 µM and an EC50 (CV-A24; read-out: EC50 Exp1) of 18 µM. For the same molecule, the EC50 (CV-A24; read-out: EC50 Exp2) was 19.3 µM, the “resistance of reverse-engineered EV-D68 2C T196S (in words)” value (EV-D68) was “provided 19d resistance, although resistance was rather moderate” and the “resistance of reverse-engineered EV-D68 2C V96M (in words)” value (EV-D68) was “provided 19d resistance, although resistance was rather moderate”. For the same molecule, the “multicycle replication assay read-out, EV-D68 Fermon” value (EV-D68; 0.2344 µM) was 10 and 12, the “multicycle replication assay read-out, EV-D68 Fermon” value (EV-D68; 0.4688 µM) was 22 and 14 and 23 and the “multicycle replication assay read-out, EV-D68 Fermon” value (EV-D68; 0.9375 µM) was 10 and 16.5525. The “multicycle replication assay read-out, EV-D68 Fermon” value (EV-D68; 1.875 µM) was 102.405 and 111.906 and 97.379, the “multicycle replication assay read-out, EV-D68 Fermon” value (EV-D68; 3.75 µM) was 102.405 and 111.906 and 97.379 and the “multicycle replication assay read-out, EV-D68 Fermon” value (EV-D68; 7.5 µM) was 109.948 and 106.039 and 109.278. For the same molecule, the “multicycle replication assay read-out, EV-D68 Fermon” value (EV-D68; 15 µM) was 109.948 and 106.039 and 109.278, the “multicycle replication assay read-out, EV-D68 Fermon” value (EV-D68; 30 µM) was 109.948 and 106.039 and 109.278 and the EC50 (EV-D68; EVD68, HeLa R19, […], read-out: EC50 Exp1) was 3.84 µM. The EC50 (EV-D68; EVD68, HeLa R19, read-out: EC50 EV-D68) was 1.37 ± 0.02 µM, the EC50 (EV-D68; EVD68, HeLa R19, read-out: EC50 EV-D68 strain 4310900947) was 4.6 ± 0.37 µM and the EC50 (EV-D68; EVD68, HeLa R19, read-out: EC50 EV-D68 strain 4310901348) was 3.55 ± 0.43 µM. For the same molecule, the EC50 (EV-D68; EVD68, HeLa R19, read-out: EC50 EV-D68 strain 4310902042) was 3.53 ± 0.41 µM, the EC50 (EV-D68; EVD68, HeLa R19, read-out: EC50 EV-D68 strain 4310902284) was 1.82 ± 0.57 µM and the EC50 (EV-D68; EVD68, HeLa R19, read-out: EC50 EV-D68 strain 4311000742) was 3.91 ± 0.13 µM. It also gave an EC50 (EV-D68; EVD68 / genotype 2c, HeLa R19, read-out: EC50 EV-D68 WT) of 1.55 ± 0.17 µM, an EC50 (HRV-A2) of 15.2 ± 1.13 µM and an EC50 (HRV-B14; HRVB14, HeLa R19, read-out: EC50 Exp1) of 4.76 µM. The EC50 (HRV-B14; HRVB14, HeLa R19, read-out: EC50 Exp2) was 3.61 µM, the EC50 (HRV-B14; HRVB14, HeLa R19, read-out: EC50 HRV-B14) was 4.19 ± 0.58 µM and the EC50 (CV-B3 [1]; CVB3, HAP1, read-out: EC50 Hap1 Average) was 0.75 µM. The EC50 (CV-B3 [1]; CVB3, HAP1, read-out: Exp 1 EC50 Hap1) was 0.69 µM, the EC50 (CV-B3 [1]; CVB3, HAP1, read-out: Exp 2 EC50 Hap1) was 0.8 µM and the EC50 (CV-B3 [2]; read-out: EC50 BGM Average) was 0.38 µM. It also gave an EC50 (CV-B3 [2]; read-out: Exp 1 EC50 BGM) of 0.44 µM and an EC50 (CV-B3 [2]; read-out: Exp 2 EC50 BGM) of 0.32 µM.
